Results as given in ChEMBL document CHEMBL3994657, “3,4-Dihydroquinazoline derivatives inhibit the activities of cholinesterase enzymes” (Bioorg Med Chem Lett, 2017).
pIC50, pKi: −log10 of the molar value.

How the values were obtained:
[1] = biological target: Acetylcholinesterase (Electrophorus electricus, UniProt O42275); assay: Inhibition of electric eel AChE using acetylthiocholine iodide as substrate preincubated for 20 mins followed by substrate addition measured for 5 mins by spectrophotometry based Ellman method
[2] = biological target: T1, Cholinesterase (Equus caballus, UniProt P81908); assay: Inhibition of equine serum BCHE using butyrylthiocholine iodide as substrate preincubated for 20 mins followed by substrate addition measured for 5 mins by spectrophotometry based Ellman method
[3] = Selectivity ratio of IC50 for electric eel AChE to IC50 for equine serum BCHE
[4] = biological target: T1, Cholinesterase; assay: Mixed/noncompetitive inhibition of equine serum BCHE using butyrylthiocholine iodide as substrate preincubated for 20 mins followed by substrate addition measured for 5 mins by Lineweaver-Burk plot analysis; details: read-out: Ki(app)

T1 sequence (P81908 whole entry): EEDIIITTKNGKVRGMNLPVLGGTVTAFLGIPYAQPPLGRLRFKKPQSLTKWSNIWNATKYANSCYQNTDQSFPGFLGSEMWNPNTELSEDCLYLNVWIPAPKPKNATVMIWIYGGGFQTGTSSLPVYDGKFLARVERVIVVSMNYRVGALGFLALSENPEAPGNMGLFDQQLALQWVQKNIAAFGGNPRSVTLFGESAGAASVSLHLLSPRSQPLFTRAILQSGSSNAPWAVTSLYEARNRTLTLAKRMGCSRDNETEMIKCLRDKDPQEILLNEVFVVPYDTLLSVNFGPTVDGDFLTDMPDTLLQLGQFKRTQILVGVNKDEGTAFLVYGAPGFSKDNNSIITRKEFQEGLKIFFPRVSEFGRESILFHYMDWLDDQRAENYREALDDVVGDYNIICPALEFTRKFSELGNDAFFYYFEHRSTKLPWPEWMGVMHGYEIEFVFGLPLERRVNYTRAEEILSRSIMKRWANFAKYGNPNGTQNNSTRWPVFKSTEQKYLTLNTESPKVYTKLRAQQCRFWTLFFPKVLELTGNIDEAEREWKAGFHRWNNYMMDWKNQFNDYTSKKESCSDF
Acetylcholinesterase, sequence (O42275 whole entry): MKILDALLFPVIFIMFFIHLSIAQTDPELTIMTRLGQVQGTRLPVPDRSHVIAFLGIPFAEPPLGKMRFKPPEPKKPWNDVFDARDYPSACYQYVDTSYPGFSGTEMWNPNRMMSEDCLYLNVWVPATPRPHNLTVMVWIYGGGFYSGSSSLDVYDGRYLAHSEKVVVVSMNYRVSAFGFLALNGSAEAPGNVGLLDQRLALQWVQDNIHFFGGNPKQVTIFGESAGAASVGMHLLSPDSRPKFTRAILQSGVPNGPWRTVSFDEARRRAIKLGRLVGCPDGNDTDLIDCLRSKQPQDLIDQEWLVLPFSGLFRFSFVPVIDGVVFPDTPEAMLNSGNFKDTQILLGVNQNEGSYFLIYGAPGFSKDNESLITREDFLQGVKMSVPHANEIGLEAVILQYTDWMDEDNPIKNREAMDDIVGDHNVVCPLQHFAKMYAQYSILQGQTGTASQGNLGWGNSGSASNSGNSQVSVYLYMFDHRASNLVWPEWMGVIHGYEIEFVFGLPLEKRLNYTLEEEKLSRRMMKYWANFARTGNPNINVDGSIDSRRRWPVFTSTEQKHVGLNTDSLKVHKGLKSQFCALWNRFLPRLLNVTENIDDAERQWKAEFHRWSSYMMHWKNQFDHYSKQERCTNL

Structure (SMILES) | pIC50 [1] | pIC50 [2] | Ratio IC50 [3] | pKi [4]
CN(C)CCCCCN(C)C1=Nc2ccccc2C(CC(=O)NCc2ccc(F)cc2)N1c1ccc(C2CCCCC2)cc1 (configuration not stated) | 5.36 | 6.40 | – | –
O=C(CC1c2cccc(F)c2N=C(N2CCN(CCN3CCCC3)CC2)N1c1ccc(C2CCCCC2)cc1)NCc1ccc(F)cc1 (configuration not stated) | < 5.00 | 5.69 | – | –
O=C(CC1c2ccccc2N=C(N2CCN(CCN3CCCC3)CC2)N1c1ccc(-c2ccccc2)cc1)NCc1ccc(F)cc1 (configuration not stated) | < 5.00 | 5.83 | – | –
COC(=O)CC1c2ccccc2N=C(N2CCN(C)CC2)N1C1CCCCC1 (configuration not stated) | ≤ 5.00 | < 5.00 | – | –
CN(C)CCCCCN(C)C1=Nc2c(F)cc(F)cc2C(CC(=O)NCc2ccccc2)N1c1ccc(-c2ccccc2)cc1 (configuration not stated) | 5.92 | 6.42 | – | –
CN(CCCCCN)C1=Nc2ccccc2C(CC(=O)NCc2ccccc2)N1c1ccc(-c2ccccc2)cc1 (configuration not stated) | 5.39 | 5.28 | – | –
COc1ccc(CNC(=O)CC2c3ccccc3N=C(N3CCN(CCN(C)C)CC3)N2c2ccc(-c3ccccc3)cc2)cc1 (configuration not stated) | < 5.00 | 5.21 | – | –
CN(C)CCCCCN(C)C1=Nc2ccccc2C(CC(=O)NCc2ccc(F)cc2)N1c1ccc(-c2ccc(F)cc2)cc1 (configuration not stated) | 5.19 | 6.62 | – | –
O=C(CC1c2ccccc2N=C(N2CCN(CCN3CCCC3)CC2)N1c1ccc(C2CCCCC2)cc1)NCc1ccc(F)cc1 (configuration not stated) | 5.10 | 5.67 | – | –
CN(C)CCN1CCN(C2=Nc3ccccc3C(CC(=O)NCc3ccc(F)cc3)N2c2ccc(-c3ccccc3)cc2)CC1 (configuration not stated) | ≤ 5.00 | 5.59 | – | –
CN(C)CCCCCN(C)C1=Nc2ccccc2C(CC(=O)NCc2ccccc2)N1c1ccc(-c2ccccc2)cc1 (configuration not stated) | ≤ 5.00 | 7.21 | 161 | 7.29
CN1CCN(C2=Nc3ccccc3C(CC(=O)NCc3ccccc3)N2c2ccccc2)CC1 (configuration not stated) | < 5.00 | < 5.00 | – | –
CN(CCCCCN1CCCC1)C1=Nc2ccccc2C(CC(=O)NCc2ccccc2)N1c1ccc(-c2ccccc2)cc1 (configuration not stated) | 5.18 | 7.35 | 146 | 7.54
COC(=O)CC1c2ccccc2N=C(N(C)CCCCCN)N1c1ccc(-c2ccccc2)cc1 (configuration not stated) | ≤ 5.00 | 6.85 | – | –
